One data set concerns T1, Keap1.
T1 construct: cell lysate CETSA
The data set is described as follows: intact-protein MS and MS/MS adduct mapping, UV-Vis reaction kinetics with purified Keap1-BTB (no reaction with C151S); the IC50 is from ITDRF-CETSA of Keap1-mCherry in cell lysate. It counts as binding.

The next data set addresses Cys151 (UniProt position 151, SMGEKCVLHVM). To be noted: not stated (reduced, unmodified C151 implied); cited from earlier work.

In turn, `Nc1ccccc1C(=O)/C=C/C(=O)O` (mixture of isomers) [Kyn-CKA, (E)- and (Z)-(4-(2-aminophenyl)-4-oxobut-2-enoic acids] came in with an EC50 in the data set with Keap1 of 12 µM.
Regarding “Kelch-like ECH-associated protein 1 (Keap1), BTB domain (not stated for the recombinant protein (probably Homo sapiens, inferred))”, in the data set with Cys151, the pKa is reported as 6.9.

The values are drawn from PMC12828764, “The electrophilic metabolite of kynurenine, kynurenine-CKA, requires C151 in Keap1 to derepress Nrf2” (Redox Biology, 2025).
